These results are taken from patent US20150344540A1, “NOVEL GLP-1 RECEPTOR AGONISTS WITH CHOLESTEROL EFFLUX ACTIVITY” (NOVO NORDISK A/S, priority 2012, published 2015).

Like-named read-outs stand apart in the source and are kept apart here. Where a SMILES comes first, the peptide text is derived from it. [ ]: non-standard residue; d: D form. Aib = CC(C)(N)C(=O)O

In experiment [1] the target is human GLP-1 receptor (Homo sapiens, UniProt P43220). Kind of experiment: Functional GLP-1 receptor assay, in vitro potency (CRE luciferase; whole cells). Type of experiment: cell-based.
human GLP-1 receptor, sequence (P43220 24-463): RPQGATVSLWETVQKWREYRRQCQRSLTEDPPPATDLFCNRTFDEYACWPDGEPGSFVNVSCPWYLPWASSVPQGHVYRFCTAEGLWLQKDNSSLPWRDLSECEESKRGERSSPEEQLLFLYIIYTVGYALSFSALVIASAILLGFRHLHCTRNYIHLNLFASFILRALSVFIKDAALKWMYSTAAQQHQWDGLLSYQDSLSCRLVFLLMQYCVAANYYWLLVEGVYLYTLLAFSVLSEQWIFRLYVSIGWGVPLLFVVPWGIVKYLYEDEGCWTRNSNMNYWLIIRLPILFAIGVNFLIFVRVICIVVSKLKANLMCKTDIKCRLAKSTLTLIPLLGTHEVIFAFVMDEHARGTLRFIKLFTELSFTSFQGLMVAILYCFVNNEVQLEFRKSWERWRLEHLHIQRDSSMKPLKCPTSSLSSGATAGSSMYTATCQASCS
The subject of experiment [2] is Mouse monocyte/macrophage cell line, RAW 264.7. As to the kind of experiment: Cholesterol efflux assay (3H-cholesterol, macrophage cell line). Type of experiment: cell-based. The note with it: RAW 264.7, 4 hrs incubation, 0.1% human serum albumin; for EC50: read-out: 4 h Cholesterol Efflux EC50, ABCA1-mediated efflux (CPT-cAMP induced minus non-induced); for 4 h Cholesterol Efflux Emax: ABCA1-mediated efflux.

Where [3] appears, read: GLP1R CRE luc 1% HSA EC50 Mean Value, BHK cells expressing human GLP-1 receptor, 1% HSA.
Where [4] appears, read: BHK cells expressing human GLP-1 receptor, 0% HSA, read-out: GLP1R CRE luc 0% HSA EC50 Mean Value.

As for `CC[C@H](C)[C@H](NC(=O)[C@H](Cc1ccccc1)NC(=O)[C@H](CCC(=O)O)NC(=O)[C@H](CCCCN)NC(=O)[C@H](C)NC(=O)[C@H](C)NC(=O)[C@H](CCC(N)=O)NC(=O)[C@H](CCC(=O)O)NC(=O)[C@H](CCC(=O)O)NC(=O)[C@H](CC(C)C)NC(=O)[C@H](Cc1ccc(O)cc1)NC(=O)[C@H](CCCCN)NC(=O)[C@H](CO)NC(=O)[C@H](Cc1ccc(O)cc1)NC(=O)[C@H](CC(=O)O)NC(=O)[C@H](CO)NC(=O)[C@@H](NC(=O)[C@H](Cc1ccccc1)NC(=O)[C@@H](NC(=O)CNC(=O)[C@H](CCC(N)=O)NC(=O)[C@H](CO)NC(=O)[C@@H](N)Cc1c[nH]cn1)[C@@H](C)O)[C@@H](C)O)C(=O)N[C@@H](C)C(=O)N[C@@H](Cc1c[nH]c2ccccc12)C(=O)N[C@@H](CC(C)C)C(=O)N[C@@H](CC(C)C)C(=O)N[C@@H](CCC(=O)O)C(=O)N[C@@H](CCCCN)C(=O)NC(C)(C)C(=O)N[C@@H](CCCCN)C(=O)N[C@@H](CCC(=O)O)C(=O)N[C@@H](Cc1ccccc1)C(=O)N[C@@H](CC(C)C)C(N)=O` [Compound 56] (H-HSQGTFTSDYSKYLEEQAAKEFIAWLLEK[Aib]KEFL-NH2; N-terminus assumed), the EC50 in experiment [1] (GLP1R CRE luc 0% HSA EC50 Mean Value, BHK cells expressing human GLP-1 receptor, 0% HSA) was found to be 0.118 nM; in experiment [1] (setting [3]) it was 0.061 nM; in experiment [2], 210 nM.
Consider `CC[C@H](C)[C@H](NC(=O)[C@H](Cc1ccccc1)NC(=O)[C@H](CCC(=O)O)NC(=O)[C@H](CCCNC(=N)N)NC(=O)[C@@H](NC(=O)[C@H](C)NC(=O)[C@H](CCC(=O)O)NC(=O)CNC(=O)[C@H](CCC(=O)O)NC(=O)[C@H](CC(C)C)NC(=O)[C@H](Cc1ccc(O)cc1)NC(=O)[C@H](CO)NC(=O)[C@H](CO)NC(=O)[C@@H](NC(=O)[C@H](CC(=O)O)NC(=O)[C@H](CO)NC(=O)[C@@H](NC(=O)[C@H](Cc1ccccc1)NC(=O)[C@@H](NC(=O)CNC(=O)[C@H](CCC(=O)O)NC(=O)C(C)(C)NC(=O)[C@@H](N)Cc1c[nH]cn1)[C@@H](C)O)[C@@H](C)O)C(C)C)C(C)C)C(=O)N[C@@H](C)C(=O)N[C@@H](Cc1c[nH]c2ccccc12)C(=O)N[C@@H](CC(C)C)C(=O)N[C@H](C(=O)N[C@@H](CCC(=O)O)C(=O)N[C@@H](CCCCN)C(=O)NC(C)(C)C(=O)N[C@@H](CCCCN)C(=O)N[C@@H](CCC(=O)O)C(=O)N[C@@H](Cc1ccccc1)C(=O)N[C@@H](CC(C)C)C(N)=O)C(C)C` [Compound 81] (H-H[Aib]EGTFTSDVSSYLEGEAVREFIAWLVEK[Aib]KEFL-NH2), for which the EC50 worked out at 0.076 nM in experiment [1] (setting [4]) and 0.028 nM in experiment [1] (setting [3]). The “4 h Cholesterol Efflux Emax” value in experiment [2] came to 112%.
As for `CC[C@H](C)[C@H](NC(=O)[C@H](Cc1ccccc1)NC(=O)[C@H](CCC(=O)O)NC(=O)[C@H](CCCCN)NC(=O)[C@@H](NC(=O)[C@H](C)NC(=O)[C@H](CCC(=O)O)NC(=O)CNC(=O)[C@H](CCC(=O)O)NC(=O)[C@H](CC(C)C)NC(=O)[C@H](Cc1ccc(O)cc1)NC(=O)[C@H](CO)NC(=O)[C@H](CO)NC(=O)[C@@H](NC(=O)[C@H](CC(=O)O)NC(=O)[C@H](CO)NC(=O)[C@@H](NC(=O)[C@H](Cc1ccccc1)NC(=O)[C@@H](NC(=O)CNC(=O)[C@H](CCC(=O)O)NC(=O)C(C)(C)NC(=O)[C@@H](N)Cc1c[nH]cn1)[C@@H](C)O)[C@@H](C)O)C(C)C)C(C)C)C(=O)N[C@@H](C)C(=O)N[C@@H](Cc1c[nH]c2ccccc12)C(=O)N[C@@H](CC(C)C)C(=O)N[C@H](C(=O)N[C@@H](CCC(=O)O)C(=O)N[C@@H](CCCCN)C(=O)N[C@H](C(=O)N[C@@H](CCCCN)C(=O)N[C@@H](CCC(=O)O)C(=O)N[C@H](C(=O)N[C@@H](CC(C)C)C(N)=O)C(C)C)C(C)C)C(C)C` [Compound 120, [Aib8,Glu23,Val25,Glu34,Lys35,Val36,Lys37]-GLP-1-(7-37)-peptidyl-Glu-Val-Leu amide] (H-H[Aib]EGTFTSDVSSYLEGEAVKEFIAWLVEKVKEVL-NH2; N-terminus assumed), the EC50 in experiment [1] (GLP1R CRE luc 0% HSA EC50 Mean Value) stood at 0.198 nM; in experiment [2], 380 nM. Moreover, in experiment [2], the “4 h Cholesterol Efflux Emax” value worked out at 142%.
Consider `CC[C@H](C)[C@H](NC(=O)[C@H](Cc1ccccc1)NC(=O)[C@H](CCC(=O)O)NC(=O)[C@H](CCCNC(=N)N)NC(=O)[C@@H](NC(=O)[C@H](C)NC(=O)[C@H](CCC(=O)O)NC(=O)CNC(=O)[C@H](CCC(=O)O)NC(=O)[C@H](CC(C)C)NC(=O)[C@H](Cc1ccc(O)cc1)NC(=O)[C@H](CO)NC(=O)[C@H](CO)NC(=O)[C@@H](NC(=O)[C@H](CC(=O)O)NC(=O)[C@H](CO)NC(=O)[C@@H](NC(=O)[C@H](Cc1ccccc1)NC(=O)[C@@H](NC(=O)CNC(=O)[C@H](CCC(=O)O)NC(=O)C(C)(C)NC(=O)[C@@H](N)Cc1c[nH]cn1)[C@@H](C)O)[C@@H](C)O)C(C)C)C(C)C)C(=O)N[C@@H](C)C(=O)N[C@@H](Cc1c[nH]c2ccccc12)C(=O)N[C@@H](CC(C)C)C(=O)N[C@H](C(=O)N[C@@H](CCC(=O)O)C(=O)N[C@@H](CCCNC(=N)N)C(=O)NC(C)(C)C(=O)N[C@@H](CCCNC(=N)N)C(=O)N[C@@H](CCC(=O)O)C(=O)N[C@@H](Cc1ccccc1)C(=O)N[C@@H](CC(C)C)C(N)=O)C(C)C` [Compound 43] (H-H[Aib]EGTFTSDVSSYLEGEAVREFIAWLVER[Aib]REFL-NH2), for which the EC50 in experiment [1] (setting [4]) amounted to 0.086 nM; in experiment [1] (setting [3]), 0.041 nM. For the same compound, the “4 h Cholesterol Efflux Emax” value in experiment [2] stood at 82%.
Turning to `CC[C@H](C)[C@H](NC(=O)[C@H](Cc1ccccc1)NC(=O)[C@H](CCC(=O)O)NC(=O)[C@H](CCCNC(=N)N)NC(=O)[C@@H](NC(=O)[C@H](C)NC(=O)[C@H](CCC(=O)O)NC(=O)[C@H](CCC(=O)O)NC(=O)[C@H](CCC(=O)O)NC(=O)[C@H](CCSC)NC(=O)[C@H](CCC(N)=O)NC(=O)[C@H](CCCCN)NC(=O)[C@H](CO)NC(=O)[C@H](CC(C)C)NC(=O)[C@H](CC(=O)O)NC(=O)[C@H](CO)NC(=O)[C@@H](NC(=O)[C@H](Cc1ccccc1)NC(=O)[C@@H](NC(=O)CNC(=O)[C@H](CCC(=O)O)NC(=O)C(C)(C)NC(=O)[C@@H](N)Cc1c[nH]cn1)[C@@H](C)O)[C@@H](C)O)C(C)C)C(=O)N[C@@H](CCC(=O)O)C(=O)N[C@@H](Cc1c[nH]c2ccccc12)C(=O)N[C@@H](CC(C)C)C(=O)N[C@@H](CCCCN)C(=O)N[C@@H](CC(N)=O)C(=O)N[C@@H](CCCCN)C(=O)NC(C)(C)C(=O)N[C@@H](CC(C)C)C(=O)N[C@@H](CCC(=O)O)C(=O)N[C@@H](Cc1ccccc1)C(=O)N[C@@H](CC(C)C)C(=O)N[C@@H](CCC(=O)O)C(=O)N[C@@H](CC(C)C)C(=O)N[C@@H](CC(C)C)C(=O)O` [Compound 23, [Aib2,Glu21,Lys29,Aib30,Leu31,Glu32,Phe33,Leu34,Glu35,Leu36,Leu371-Exendin-4-(1-37)-peptide], in experiment [2], the “4 h Cholesterol Efflux Emax” value stood at 99% and the EC50 amounted to 730 nM.
